Measurements reported in the supplement of paper PMC10307832.

Legend:
Experiment in all cases: relative viability (nuclei count vs DMSO), 5 days (fraction); higher = more cells survive
[1] = compound: Cc1ccc(-n2nc(C(C)(C)C)cc2NC(=O)Nc2ccc(OCCN3CCOCC3)c3ccccc23)cc1 [Doramapimod] + CC1(C)CCC(c2ccc(Cl)cc2)=C(CN2CCN(c3ccc(C(=O)NS(=O)(=O)c4ccc(N[C@H](CCN5CCOCC5)CSc5ccccc5)c(S(=O)(=O)C(F)(F)F)c4)cc3)CC2)C1 [Navitoclax] (partner 0.5 µM)
Procedure, shortened: (§1)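 One day after seeding in 1536-well plates, lung cancer cell lines were dosed by pin tool. Dosing was either single-drug or a fixed anchor-drug dose plus five library-drug doses (not always all listed) in √10 steps. After 5 days, nuclei were stained in one fix-and-stain step and counted on 4× images, and relative viability is the nuclei count of treated wells over that of vehicle wells, given as the median of duplicate plates.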

[2] = compound: C1=CC=C2C(=C1)C=CC(=C2SSC3=C(C=CC4=CC=CC=C43)O)O [IPA-3] + CS(=O)(=O)CCNCc1ccc(-c2ccc3ncnc(Nc4ccc(OCc5cccc(F)c5)c(Cl)c4)c3c2)o1 [Lapatinib] (partner 2 µM)
Procedure, shortened: as §1

[3] = compound: Cn1c(Nc2ccc(C(F)(F)F)cc2)nc2cc(Oc3ccnc(-c4ncc(C(F)(F)F)[nH]4)c3)ccc21 [RAF265] + COc1cccc2cc(-c3nc([C@H]4CC[C@H](C(=O)O)CC4)n4ncnc(N)c34)[nH]c12 [OSI-027] (partner 0.5 µM)
Procedure, shortened: as §1

[4] = compound: C1=CC=C2C(=C1)C=CC(=C2SSC3=C(C=CC4=CC=CC=C43)O)O [IPA-3] + CCNC(=O)c1noc(-c2cc(C(C)C)c(O)cc2O)c1-c1ccc(CN2CCOCC2)cc1 [Luminespib] (partner 0.01 µM)
Procedure, shortened: as §1

Cell Line	relative viability ([1]; first compound 0.02 µM)	relative viability ([1]; first compound 0.06325 µM)	relative viability ([1]; first compound 0.2 µM)	relative viability ([1]; first compound 0.6325 µM)	relative viability ([1]; first compound 2 µM)	relative viability ([2]; first compound 0.2 µM)	relative viability ([2]; first compound 0.6325 µM)	relative viability ([2]; first compound 2 µM)	relative viability ([2]; first compound 6.325 µM)	relative viability ([2]; first compound 20 µM)	relative viability ([3]; first compound 0.01 µM)	relative viability ([3]; first compound 0.03162 µM)	relative viability ([3]; first compound 0.1 µM)	relative viability ([3]; first compound 0.3162 µM)	relative viability ([3]; first compound 1 µM)	relative viability ([4]; first compound 0.2 µM)	relative viability ([4]; first compound 0.6325 µM)	relative viability ([4]; first compound 2 µM)	relative viability ([4]; first compound 6.325 µM)	relative viability ([4]; first compound 20 µM)
NCI-H1993	0.952	0.749	0.966	0.918	0.834	0.829	0.742	0.767	0.909	0.738	0.539	0.583	0.552	0.579	0.543	1.05	1.32	0.852	0.478	0.844
NCI-H1437	1.09	1.1	1.16	1.09	1.05	1.34	0.774	0.802	0.726	0.825	0.863	0.918	0.82	0.982	0.611	1.15	0.951	1.1	1.03	1.24
NCI-H838	1.16	1.19	1.26	1.32	1.12	1.55	0.964	0.941	1.01	1.07	0.403	0.491	0.455	0.341	0.304	0.238	0.218	0.306	0.276	0.378
NCI-H1666	0.991	0.838	1.04	0.918	0.789	0.77	0.673	0.674	0.786	0.66	0.89	0.716	0.774	0.739	0.598	1.06	0.972	1.04	1.16	1.34
NCI-H1944	1	1.11	1.05	1.17	1.08	0.803	0.763	0.814	1.04	0.791	0.516	0.5	0.357	0.317	0.237	0.914	0.651	0.891	0.827	0.937
NCI-H2023	1.09	1.08	0.892	1	0.948	0.91	0.711	0.774	0.925	0.832	0.387	0.358	0.33	0.252	0.318	0.93	0.617	0.674	0.712	0.693
NCI-H1755	0.997	1	1	1.06	0.968	1.11	0.988	1.05	1.06	1.17	0.689	0.636	0.597	0.455	0.303	0.447	0.421	0.416	0.479	0.597
NCI-H23	0.905	0.794	0.763	0.882	0.832	1.16	1.04	1.24	1.09	0.735	0.734	0.46	0.412	0.318	0.221	0.221	0.224	0.201	0.227	0.204
201T	1.27	1.24	1.2	1.29	1.28	1.06	1.05	1.02	1.04	1.07	0.794	0.799	0.788	0.58	0.351	1.07	1.02	1.08	1.05	1.14
NCI-H1734	0.723	0.799	0.692	0.77	0.572	1.19	0.969	1.12	0.982	0.892	0.604	0.54	0.38	0.381	0.247	0.191	0.224	0.185	0.216	0.194
NCI-H520	1	1.11	1.08	1.18	1.02	1.04	0.894	0.697	0.95	0.729	0.248	0.255	0.287	0.299	0.224	0.213	0.3	0.266	0.244	0.247
NCI-H1650	1.09	1.2	1.23	1.63	1.2	0.925	0.176	0.802	0.893	0.774	0.631	0.598	0.8	0.456	0.649	0.193	0.179	0.218	0.208	0.191
NCI-H1355	0.943	0.947	0.956	0.923	0.867	1.11	0.968	0.941	0.966	1.01	0.461	0.314	0.3	0.251	0.217	0.889	0.677	0.719	0.702	0.757
NCI-H1915	0.843	0.838	0.85	0.801	0.761	1.06	0.968	0.934	0.941	1.02	0.674	0.492	0.339	0.217	0.176	0.968	0.534	0.775	0.713	0.926
